Data taken from US6288103A, “Indole derivatives as MCP-1 receptor antagonists” (Zeneca Limited, priority 1997, dated 2001).

Molecular target: T1, hMCP-1 receptor, MCP-1 receptor B (CCR2B) (Homo sapiens, UniProt P41597)
T1 construct: expressed in transfected cells; host or cells: CHO-K1 (clone 7, CHO-CCR2B), membrane fragments
T1 sequence (P41597 1-360 isoform P41597-2): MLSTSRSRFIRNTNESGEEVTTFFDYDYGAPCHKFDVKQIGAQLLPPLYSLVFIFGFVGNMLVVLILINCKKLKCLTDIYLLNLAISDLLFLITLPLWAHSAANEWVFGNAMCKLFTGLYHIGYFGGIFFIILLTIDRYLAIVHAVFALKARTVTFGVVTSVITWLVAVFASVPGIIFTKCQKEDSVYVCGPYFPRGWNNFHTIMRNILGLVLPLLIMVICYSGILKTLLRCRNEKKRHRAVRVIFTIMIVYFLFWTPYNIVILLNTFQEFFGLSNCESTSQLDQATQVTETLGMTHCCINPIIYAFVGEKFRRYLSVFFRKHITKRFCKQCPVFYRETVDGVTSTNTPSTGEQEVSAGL
Experiment: hMCP-1 receptor-binding assay
Details: competition with 100 pM 125I-labelled MCP-1, CHO-CCR2B cell membranes, concentration range 0.1-200 μM
Description: a) hMCP-1 Receptor-binding Assay
The MCP-1 receptor B (CCR2B) cDNA was cloned by PCR from THP-1 cell RNA using suitable oligonucleotide primers based on the published MCP-1 receptor sequences (Charo et al., 1994, Proc. Natl. Acad. Sci. USA, 91, 2752). The resulting PCR products were cloned into vector PCR-II™ (InVitrogen, San Diego, Calif.). Error free CCR2B cDNA was subcloned as a Hind III-Not I fragment into the eukaryotic expression vector pCDNA3 (In Vitrogen) to generate pCDNA3/CC-CKR2A and pCDNA3/CCR2B respectively.
Linearised pCDNA3/CCR2B DNA was transfected into CHO-K1 cells by calcium phosphate precipitation (Wigler et al., 1979, Cell, 16, 777). Transfected cells were selected by the addition of Geneticin Sulphate (G418, Gibco BRL) at 1 mg/ml, 24 hours after the cells had been transfected. Preparation of RNA and Northern blotting were carried out as described previously (Needham et al., 1995, Prot. Express. Purific., 6, 134). CHO-K1 clone 7 (CHO-CCR2B) was identified as the highest MCP-1 receptor B expressor.
CHO-CCR2B cells were grown in DMEM supplemented with 10% foetal calf serum, 2 mM glutamine, 1× Non-Essential Amino Acids, 1× Hypoxanthine and Thymidine Supplement and Penicillin-Streptomycin (at 50 μg streptomycin/mi, Gibco BRL). […]

- IC50: 10 µM
Structure (SMILES): O=C(O)c1cc2ccccc2n1S(=O)(=O)c1ccc(Cl)c(Cl)c1 [Example 2.01, N-(3,4-Dichlorophenylsulphonyl)indole-2-carboxylic acid]
